The record followed here is US9434734B2, “Substituted pyrazoloquinazolinones and pyrroloquinazolinones as allosteric modulators of group II metabotropic glutamate receptors” (Domain Therapeutics, priority 2012, dated 2016).

Structures can show the parent of a compound that is named as a salt.

By melting point is commonly meant the temperature of the solid-liquid transition.

With `Cc1cc(-c2ccc3c(=O)n(CC(F)(F)F)c4cc(C5CCCC5)nn4c3c2)cc(C)n1.Cl`, the melting point is > 250 °C.

As to `Cc1cc(-c2cc3n(C)c(=O)c4ccc(-c5cccnc5C)cc4n3n2)cc(C)n1` (as salt: salt) [Example 113, 2-(2,6-Dimethyl-pyridin-4-yl)-4-methyl-8-(2-methyl-pyridin-3-yl)-4H-pyrazolo[1,5-a]quinazolin-5-one], the melting point is > 250 °C.

In the case of `COc1ccc(-c2ccc3c(=O)n(C)c4cc(-c5cnn(C)c5)nn4c3c2)cc1` [Example 125, 8-(4-Methoxy-phenyl)-4-methyl-2-(1-methyl-1H-pyrazol-4-yl)-4H-pyrazolo[1,5-a]quinazolin-5-one], the melting point fell in the range of 211 to 213 °C.

Compound `CCCn1c(=O)c2ccc(-c3ccc(N)nc3)cc2n2nc(CCOC)cc12.Cl` returned a melting point of 96 to 102 °C.

On to `Cl.Cn1c(=O)c2ccc(-c3ccc(N)nc3C(F)(F)F)cc2n2nc(-c3ccccc3)cc12`, for which the melting point was > 250 °C.

In turn, `Cc1ncccc1-c1ccc2c(=O)n(C)c3cc(-c4cnn(C)c4)nn3c2c1.Cl` gave a melting point of 169 to 187 °C.

With `Cc1cc(-c2cc3n(C)c(=O)c4ccc(-c5cc(C)nc(C)c5)cc4n3n2)ccn1` (as salt: salt) [Example 133, 8-(2,6-Dimethyl-pyridin-4-yl)-4-methyl-2-(2-methyl-pyridin-4-yl)-4H-pyrazolo[1,5-a]quinazolin-5-one], the melting point was > 250 °C.

As to `Cc1cc(-c2cc3n(C)c(=O)c4ccc(-c5cnccc5C)cc4n3n2)cc(C)n1` (as salt: salt) [Example 119, 2-(2,6-Dimethyl-pyridin-4-yl)-4-methyl-8-(4-methyl-pyridin-3-yl)-4H-pyrazolo[1,5-a]quinazolin-5-one], the melting point was > 250 °C.

As to `Cl.Cn1c(=O)c2ccc(-c3ccncc3)cc2n2nc(C3CCOCC3)cc12`, the melting point was 218 to 223 °C.

For `Cc1ncccc1-c1ccc2c(=O)n(C)c3cc(-c4cccnc4)nn3c2c1` (as salt: salt) [Example 134, 4-Methyl-8-(2-methyl-pyridin-3-yl)-2-pyridin-3-yl-4H-pyrazolo[1,5-a]quinazolin-5-one], the melting point was > 250 °C.

`Cn1c(=O)c2ccc(-c3nn[nH]n3)cc2n2nc(-c3ccccc3)cc12` [Example 22, 4-Methyl-2-phenyl-8-(2H-tetrazol-5-yl)-4H-pyrazolo[1,5-a]quinazolin-5-one]: the melting point is > 250 °C.

Regarding `CCn1c(=O)c2ccc(-c3cc(C)nc(C)c3)cc2n2nc(CCOC)cc12.Cl`, the melting point lay within 173 to 180 °C.

As to `Cc1cc(-c2cc3n(C)c(=O)c4ccc(-c5cccnc5)cc4n3n2)cc(C)n1` (as salt: salt) [Example 116, 2-(2,6-Dimethyl-pyridin-4-yl)-4-methyl-8-pyridin-3-yl-4H-pyrazolo[1,5-a]quinazolin-5-one], the melting point is > 250 °C.

For `Cc1cc(-c2cc3n(C)c(=O)c4ccc(-c5cccnc5C)cc4n3n2)ccn1` (as salt: salt) [Example 132, 2-(2-methyl-pyridin-4-yl)-4-methyl-8-(2-methyl-pyridin-3-yl)-4H-pyrazolo[1,5-a]quinazolin-5-one], the melting point is > 250 °C.

As to `Cn1c(=O)c2ccc(-c3cccnc3C(F)(F)F)cc2n2nc(-c3ccnc(C(F)(F)F)c3)cc12` [Example 142, 4-Methyl-2-(2-trifluoromethyl-pyridin-4-yl)-8-(2-trifluoromethyl-pyridin-3-yl)-4H-pyrazolo[1,5-a]quinazolin-5-one], the melting point was > 250 °C.

`COc1ccc(-c2ccc3c(=O)n(C)c4cc(-c5ccccc5)nn4c3c2)cc1` [Example 7, 8-(4-Methoxy-phenyl)-4-methyl-2-phenyl-4H-pyrazolo[1,5-a]quinazolin-5-one]: the melting point was > 250 °C.

For `Cc1cc(-c2ccc3c(=O)n(C)c4cc(-c5cc(C)nc(C)c5)nn4c3c2)cc(C)n1` (as salt: salt) [Example 114, 2,8-Bis-(2,6-dimethyl-pyridin-4-yl)-4-methyl-4H-pyrazolo[1,5-a]quinazolin-5-one], the melting point was > 250 °C.

As to `Cn1c(=O)c2ccc(-c3cn[nH]c3)cc2n2nc(C3CCOCC3)cc12` [Example 87, 4-Methyl-8-(1H-pyrazol-4-yl)-2-(tetrahydro-pyran-4-yl)-4H-pyrazolo[1,5-a]quinazolin-5-one], the melting point was > 250 °C.

Take `Cc1cncc(-c2ccc3c(=O)n(C)c4cc(-c5cc(C)nc(C)c5)nn4c3c2)c1` (as salt: salt) [Example 118, 2-(2,6-Dimethyl-pyridin-4-yl)-4-methyl-8-(5-methyl-pyridin-3-yl)-4H-pyrazolo[1,5-a]quinazolin-5-one]: the melting point was > 250 °C.

Regarding `Cc1cc(-c2cc3n(C)c(=O)c4ccc(-c5ccc(N)nc5)cc4n3n2)cc(C)n1` (as salt: salt) [Example 112, 8-(6-Amino-pyridin-3-yl)-2-(2,6-dimethyl-pyridin-4-yl)-4-methyl-4H-pyrazolo[1,5-a]quinazolin-5-one], the melting point is > 250 °C.

Take `CC(C)Cn1c(=O)c2ccc(-c3cccc(S(=O)(=O)N(C)C)c3)cc2n2nc(-c3ccccc3)cc12` [Example 41, 3-(4-isobutyl-5-oxo-2-phenyl-4,5-dihydro-pyrazolo[1,5-a]quinazolin-8-yl)-N,N-dimethyl-benzenesulfonamide]: the melting point lay in the range of 159 to 163 °C.

Regarding `CCCn1c(=O)c2ccc(-c3cc(C)nc(C)c3)cc2n2nc(CCOC)cc12.Cl`, the melting point lay within 120 to 125 °C.
